Data taken from US5972952A, “Neuroprotective pharmaceutical composition containing stereoisomers of arylcyclohexylamines” (Le Centre National De La Recherche Scientifique, priority 1996, dated 1999).

Assays:
[1] = molecular target: PCP receptor; experiment: [^3H]TCP binding to the PCP receptor (rat brain minus cerebellum homogenate); details: inhibition of [^3H]TCP (1 nM) specific binding, 30 min, 25° C., pH 7.7
Method: 1-[1-(2-thienyl)-2-methylcyclohexyl]piperidine (TCP) binding to the PCP receptor was performed as previously described. […] The rat brain (minus the cerebellum) was removed and homogenized with an Ultraturax (Ika Werke, Staufen, Germany, maximum setting) in a 50 mM Tris/HCl, pH 7.7 buffer for 20 s at 4° C. The homogenate was then centrifuged at 49,000 g for 20 min. and the pellet was resuspended in the same buffer and the homogenization-centrifugation steps performed a second time. The final pellet was resuspended in 10 volumes of a 50 mM Tris/Hepes, pH 7.7 buffer and used without further purification.
The homogenate (0.5-0.8 mg protein/ml) was incubated with N-[1-(2-thienyl) cyclohexyl]3,4-[^3 H]piperidine ([^3 H]TCP, 1 nM) (Amersham, Arlington Heights, Ill, 48 Ci/mmol) in a 5 mM Tris/Hepes, pH 7.7 buffer in the absence (total binding) and in the presence of the test compounds for 30 min. at 25° C. in a volume of 0.5 ml. […] The filters were rinsed twice with 5 ml of a 50 mM NaCl, Tris HCl 10 mM, pH 7.7 buffer and the radioactivity retained counted in 3.5 ml ACS (Amersham) with an Excel 1410 (LKB) liquid scintillation spectrophotometer. The nonspecific binding was determined in parallel experiments in the presence of 100 μM unlabeled TCP.

[2] = tested on: mixed neuronal and glial neocortical cells; experiment: Protection of cultured neuronal cells against glutamate neurotoxicity (LDH release); format: cell-based, Sprague-Dawley rat; details: Rattus norvegicus, glutamate 500 μM for 5 min, 24 h, 100% = glutamate without test compound, read-out: % OF DEAD; for neurotoxicity, % of glutamate alone at 0.1 µM: test compound 0.1 μM; for neurotoxicity, % of glutamate alone at 1 µM: test compound 1 μM; for neurotoxicity, % of glutamate alone at 5 µM: test compound 5 μM; for neurotoxicity, % of glutamate alone at 10 µM: test compound 10 μM
Method: Cultures of mixed neuronal and glial neocortical cells were prepared from 18-day-old Sprague-Dawley rat foetuses (IFFA-Credo, St. Germain l'Arbresle, France). The cerebral hemispheres were rapidly dissected in Hanks' BSS supplemented with glucose (6 g/l), incubated in trypsine-EDTA (5 min at 35° C.), rinsed with calcium/magnesium-free glucosed Hanks' and mechanically dissociated. After centrifugation (10 min, 70 g), the cells were resuspended in the culture medium consisting of 87% Eagle's minimal essential medium (MEM), 10% horse serum and 0.6% glucose (without antibiotics), and plated on poly-d-lysine (10 μg/cm^2) coated coverslips, in 24-well dishes, to a final density of 4×10^5 cells/cm^2 in 400 μl/well. The cultures were maintained for 2-3 weeks at 35° C. in a humidified atmosphere (95% air/5% CO2), one-third of the medium being replaced every 4 days.
After 17-20 days in vitro, the culture medium was replaced with 400 μl of experimental medium (EM supplemented with glucose) containing the test compound for 5 min. at room temperature. This medium was replaced with the experimental medium containing the same concentration of test compound plus glutamate 500 μM for another 5 min. Finally, the cells were rinsed with the experimental medium and incubated for 24 h. The control cultures had received the same number of replacements of medium as the experimental ones, with standard experimental medium. The 100% neurotoxicity level was based on the effect of glutamate 500 μM for 5 min. The protective effect was quantified by estimation of the activity of the lactate dehydrogenase (LDH) released in the medium. Culture supernatant (100 μl) was added to phosphate buffer (875 μl, 125 mM, pH 7.6) containing 0.3 mM pyruvic acid and β-NADH (25 μl, 10 mg/ml). The decrease in absorbance was measured at 340 nm (Lockhart, et al., Brain Res. 630:36-40 (1993)).
Four concentrations of test compounds were used, i.e., 10, 5, 1, and 0.1 μM. The dead-cell population was determined by LDH enzymic activity and the results, presented in Table II, were compared with the 100% mortality based on the 500 μM glutamate treated cells without test compound protection.

Compound	IC50 [1] [nM]	neurotoxicity, % of glutamate alone at 0.1 µM [2] [%]	neurotoxicity, % of glutamate alone at 1 µM [2] [%]	neurotoxicity, % of glutamate alone at 5 µM [2] [%]	neurotoxicity, % of glutamate alone at 10 µM [2] [%]
C[C@@H]1CCCC[C@]1(c1ccco1)N1CCCCC1 [(1S,2R)1-[1-(2-Furanyl)-2-methylcyclohexyl]-piperidine]	5.5 ± 1.9	92.5	83.6	43.3	32.1
C[C@@H]1CCCC[C@]1(c1cccs1)N1CCCCC1 [(1S,2R)1-[1-(2-Thienyl)-2-methylcyclohexyl]-piperidine]	–	90.3	32.9	27.2	29.7
